Consider one compound from US4490529A, “Cysteic acid and homocysteic acid analogues of methotrexate and aminopterin” (Dana-Farber Cancer Institute, Inc., priority 1983, dated 1984).

SMILES strings stand for the structures.

This series is described as follows: Solubility in water and precipitation behaviour. It is filed as physicochemical. The method, then: 4-Amino-4-deoxy-N^10 -methylpteroic acid dihydrate (720 mg, 2.0 mmoles) is added in small portions to a stirred solution of diethylphosphorocyanidate (915 mg, 5 mmoles) and triethylamine (500 mg, 5 mmoles) in N,N-dimethylformamide (DMF) (75 ml) previously dried over Linde 4A molecular sieves. The solution is stirred at room temperature overnight, and an extra 25% of diethyl phosphorocyanidate and Et3 N is added. TLC (silica gel, 4:1 chloroform-methanol) indicates the formation of the activated intermediate to be complete. The silylated D,L-homocysteic acid triethylammonium salt (1.8 g, 4 mmoles) is then added, and the reaction mixture is stirred at room temperature for 44 hours. After addition of a few milliliters of water, the solvent is removed with the aid of a rotary evaporator and the residue is dissolved in 3 percent ammonium bicarbonate, with a few drops of concentrated ammonia being added as needed. […] The solution is taken up in a minimum of H2 O with just enough Nh4 OH added to dissolve all the solid, and the solution is applied to a DEAE-cellulose column that has been pre-equilibrated with 3 percent ammonium bicarbonate and then washed to neutrality with H2 O. The column is eluted with a large volume of H2 O, and then again with 3% NH4 HCO3. […] Individual 5-10 ml volumes of the NH4 HCO3 eluate are monitored by TLC. […]

`CN(Cc1cnc2nc(N)nc(N)c2n1)c1ccc(C(=O)NC(CCS(=O)(=O)O)C(=O)O)cc1` (racemic) [mAPA-D,L-HCysA, N-(4-Amino-4-deoxy-N^10-methylpteroyl)-D,L-homocysteic acid]: the solubility in water result is listed as “very soluble in water”. The “precipitation from basic solution” value (adjustment of the pH to 6, in contrast to methotrexate) is given as “cannot be precipitated from basic solution on adjustment of the pH to 6”.
